Data set [1] concerns NCI-H1155 (lung cancer cells). The data set is described as follows: CytoX cell viability assay in NCI-H1155 lung cancer cells. Particulars: Homo sapiens, NCI-H1155, 72 h; for viability at 0.01 µM: read-out: NCI-H1155 (% viability) at 10 nM; for viability at 0.5 µM: read-out: NCI-H1155 (% viability) at 500 nM.
Procedure: (§1) The viability of NCI-H1155 (lung cancer cells) was measured using the CytoX cell viability assay kit (LPS Solution, #CYT3000). […] CytoX solution was then added to the cells and incubated for 1 hour.
Data set [2] concerns NCI-H1155 (lung cancer cells).
Procedure: as §1
The next data set deals with KG-1 cells. The data set is described as follows: Cytotoxicity assay (WST-1) in KG-1 cancer cells. Format: cell-based. Particulars: Homo sapiens, 72 hours. The protocol: To evaluate the effects of the compounds of the present disclosure on cancer cells, a cytotoxicity assay was conducted as follows.
Cancer cells (KG-1) were seeded at a density of 10,000 cells per well in 96-well plates. The compound of the present disclosure and control compounds (Comparative Compounds 1, 2, and 3) were treated at predetermined concentrations. After 72 hours, the cells were treated with WST-1 reagent for 1 hour. Then, absorbance was read at 450 nm using a SpectraMax spectrophotometer to determine cell viability.

Turning to `O=C1CCC(N2Cc3cc(CNC(=O)[C@@H]4C[C@H]4c4ccc(Cl)cc4)ccc3C2=O)C(=O)N1` (mixture of isomers) [Cpd. 5, (1R,2R)-2-(4-chlorophenyl)-N-((2-(2,6-dioxopiperidin-3-yl)-1-oxoisoindolin-5-yl)methyl)cyclopropane-1-carboxamide racemic mixture], in data set [1], the viability at 0.01 µM was found to be 2% and the viability at 0.5 µM amounted to 4%. As for `O=C1CCC(N2Cc3cc(CNC(=O)C(F)(F)c4ccc(Cl)cc4)ccc3C2=O)C(=O)N1` (stereo not drawn) [CC-90009 (Eragidomide), Eragidomide], the “NCI-H1155 (% viability) at 10 nM” value in data set [2] (0.01 µM) is given as 85.0%. In addition, the “NCI-H1155 (% viability) at 500 nM” value in data set [2] (0.5 µM) came to 23.25%. The compound `O=C1CCC(N2Cc3cc(CNC(=O)c4cc5ccccc5cn4)ccc3C2=O)C(=O)N1` (stereo not drawn) [Comparative Cpd. 1, N-((2-(2,6-dioxopiperidin-3-yl)-1-oxoisoindolin-5-yl)methyl) isoquinoline-3-carboxamide] yielded a half-inhibitory concentration (IC50) in the data set with KG-1 cells of more than 10 µM. On the same count and under the same terms, under `O=C1CCC(N2Cc3cc(CNC(=O)c4cnc5ccccc5n4)ccc3C2=O)C(=O)N1` (stereo not drawn) [Comparative Cpd. 2, N-((2-(2,6-dioxopiperidin-3-yl)-1-oxoisoindolin-5-yl)methyl)quinoxaline-2-carboxamide] stands more than 10 µM; under `O=C1CCC(N2Cc3cc(CNC(=O)c4ccc5cc(Cl)ccc5n4)ccc3C2=O)C(=O)N1` (stereo not drawn) [Comparative Cpd. 3, 6-chloro-N-((2-(2,6-dioxopiperidin-3-yl)-1-oxoisoindolin-5-yl)methyl) quinoline-2-carboxamide], 4.1 µM. Same read-out and setting: under `O=C1CCC(N2Cc3cc(CNC(=O)[C@@H]4C[C@H]4c4ccccc4)ccc3C2=O)C(=O)N1` (stereo partly drawn) [Cpd. 1, (1R,2R)—N-((2-(2,6-dioxopiperidin-3-yl)-1-oxoisoindolin-5-yl)methyl)-2-phenylcyclopropane-1-carboxamide] stands 0.002 µM. Consider `O=C1CCC(N2Cc3cc(CNC(=O)[C@@H]4C[C@H]4c4ccc(Cl)cc4)ccc3C2=O)C(=O)N1` (stereo partly drawn) [Cpd. 3, (1R,2R)-2-(4-chlorophenyl)-N-((2-(2,6-dioxopiperidin-3-yl)-1-oxoisoindolin-5-yl)methyl)cyclopropane-1-carboxamide], for which, in data set [1], the viability at 0.01 µM came to 4% and the viability at 0.5 µM amounted to 4%. On to `O=C1CCC(N2Cc3cc(CNC(=O)[C@@H]4C[C@@H]4c4ccccc4)ccc3C2=O)C(=O)N1` (stereo partly drawn) [Cpd. 4, (1R,2S)—N-((2-(2,6-dioxopiperidin-3-yl)-1-oxoisoindolin-5-yl)methyl)-2-phenylcyclopropane-1-carboxamide], for which, in data set [1], the viability at 0.01 µM was 94% and the viability at 0.5 µM stood at 95%.

As to `O=C1CCC(N2Cc3cc(CNC(=O)[C@@H]4C[C@H]4c4cccc(Cl)c4)ccc3C2=O)C(=O)N1` (stereo partly drawn) [Cpd. 6, (1R,2R)-2-(3-chlorophenyl)-N-((2-(2,6-dioxopiperidin-3-yl)-1-oxoisoindolin-5-yl)methyl)cyclopropane-1-carboxamide], in data set [1], the viability at 0.01 µM was 5% and the viability at 0.5 µM turned out to be 4%. Consider `O=C1CCC(N2Cc3cc(CNC(=O)[C@H]4C[C@@H]4c4ccccc4)ccc3C2=O)C(=O)N1` (stereo partly drawn) [Cpd. 7, (1S,2S)—N-((2-(2,6-dioxopiperidin-3-yl)-1-oxoisoindolin-5-yl)methyl)-2-phenylcyclopropane-1-carboxamide], for which, in data set [1], the viability at 0.01 µM was 3% and the viability at 0.5 µM was determined as 4%. The corresponding values for `O=C1CCC(N2Cc3cc(CNC(=O)[C@@H]4C[C@H]4c4ccc(F)cc4)ccc3C2=O)C(=O)N1` (stereo partly drawn) [Cpd. 8, (1R,2R)—N-((2-(2,6-dioxopiperidin-3-yl)-1-oxoisoindolin-5-yl)methyl)-2-(4-fluorophenyl)cyclopropane-1-carboxamide] are 48% and 26%. Take `O=C1CCC(N2Cc3cc(CNC(=O)[C@@H]4C[C@H]4c4cccc(F)c4)ccc3C2=O)C(=O)N1` (stereo partly drawn) [Cpd. 9, (1R,2R)—N-((2-(2,6-dioxopiperidin-3-yl)-1-oxoisoindolin-5-yl)methyl)-2-(3-fluorophenyl)cyclopropane-1-carboxamide]: in data set [1], the viability at 0.01 µM was determined as 52% and the viability at 0.5 µM came out at 25%.

Turning to `O=C1CCC(N2Cc3cc(CNC(=O)[C@H]4C[C@@H]4c4cccc(Cl)c4)ccc3C2=O)C(=O)N1` (stereo partly drawn) [Cpd. 10, (1S,2S)-2-(3-chlorophenyl)-N-((2-(2,6-dioxopiperidin-3-yl)-1-oxoisoindolin-5-yl)methyl)cyclopropane-1-carboxamide], in data set [1], the viability at 0.01 µM was found to be 39% and the viability at 0.5 µM was found to be 25%. The corresponding values for `O=C1CCC(N2Cc3cc(CNC(=O)C4CC4c4ccc(C(F)(F)F)cc4)ccc3C2=O)C(=O)N1` (stereo not drawn) [Cpd. 11, N-((2-(2,6-dioxopiperidin-3-yl)-1-oxoisoindolin-5-yl)methyl)-2-(4-(trifluoromethyl)phenyl)cyclopropane-1-carboxamide] are 79% and 34%. The corresponding values for `Cc1ccc([C@H]2C[C@@H]2C(=O)NCc2ccc3c(c2)CN(C2CCC(=O)NC2=O)C3=O)cc1` (stereo partly drawn) [Cpd. 12, (1S,2S)—N-((2-(2,6-dioxopiperidin-3-yl)-1-oxoisoindolin-5-yl)methyl)-2-(p-tolyl)cyclopropane-1-carboxamide] are 44% and 27%. `O=C1CCC(N2Cc3cc(CNC(=O)C4CC4c4ccc(Cl)cc4Cl)ccc3C2=O)C(=O)N1` (stereo not drawn) [Cpd. 13, 2-(2,4-dichlorophenyl)-N-((2-(2,6-dioxopiperidin-3-yl)-1-oxoisoindolin-5-yl)methyl)cyclopropane-1-carboxamide]: in data set [1], the viability at 0.01 µM was 27% and the viability at 0.5 µM turned out to be 24%. The corresponding values for `O=C1CCC(N2Cc3cc(CNC(=O)C4CCC4c4ccccc4)ccc3C2=O)C(=O)N1` (stereo not drawn) [Cpd. 14, N-((2-(2,6-dioxopiperidin-3-yl)-1-oxoisoindolin-5-yl)methyl)-2-phenylcyclobutane-1-carboxamide] are 96% and 57%.
